Data published in US9518015B2, “EP1 receptor ligands” (LABORATORIOS DEL DR. ESTEVE, S.A., priority 2011, dated 2016).

These compounds were tested against T1, human EP1 receptor (Homo sapiens, UniProt P34995) (assay: Test 2: Measurement of IP1 responses by HTRF, suspended HEK-293 cells stably expressing human EP1 receptors, PGE2 30 nM). Settings: HEK293, at 10 μM, read-out: Results of Test 2 (Functional assay), % inh.
T1 sequence (P34995 1-402): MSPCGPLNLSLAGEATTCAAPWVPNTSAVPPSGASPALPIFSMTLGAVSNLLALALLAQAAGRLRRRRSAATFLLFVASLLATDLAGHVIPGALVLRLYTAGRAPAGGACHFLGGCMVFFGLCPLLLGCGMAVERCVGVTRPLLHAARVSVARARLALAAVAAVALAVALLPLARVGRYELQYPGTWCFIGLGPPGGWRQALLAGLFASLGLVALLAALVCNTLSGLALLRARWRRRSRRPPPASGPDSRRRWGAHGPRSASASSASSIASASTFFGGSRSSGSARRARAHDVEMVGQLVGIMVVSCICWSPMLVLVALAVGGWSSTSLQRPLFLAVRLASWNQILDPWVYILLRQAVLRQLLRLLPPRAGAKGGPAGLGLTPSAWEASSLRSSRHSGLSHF
Assay type: cell-based
Set-up: expressed in transfected cells
Experimental: Test 2: Measurement of IP1 responses by Homogeneous Time Resolved Fluorescence
IP1 measurements on HEK-293 cells that stably expressed human EP1 receptors were performed by using a system based on Homogeneous Time Resolved Fluorescense (HTRF) (Gabriel et al., 2003). This technology allows the direct measurement of IP1 in living cells. The principle of this assay is based on competition between IP1 produced by cells and IP1-d2 conjugate for the binding with monoclonal anti-IP1-cryptate conjugate. The HTRF IP1 kit from CisBio was used according to the manufacturer's directions. The experimental procedure was performed as stated below.
Suspended cells (30,000 cells per well) were added to 96-well culture plates in 40 μl of stimulation buffer (supplied by the kit). Compounds were then added in 20 μl of stimulation buffer and incubated at 37° C. for 15 minutes followed by 10 μl of PGE2 to a final concentration of […]. After 90 minutes at 37° C., the reaction was stopped lysing the cells with a mixture of 15 μl of cryptate and 15 μl of IP1-d2 prepared in the lysis buffer supplied by the manufacturer. Plates were incubated for an additional hour at room temperature and read at 665 nm/620 nm using an UltraEvolution Plate reader (Tecan).
Antagonist percentage inhibition was calculated relating compounds activity to the 0% inhibition of the wells incubated with 10 nM PGE2 alone and 100% inhibition of the wells incubated with 10 nM PGE2 plus 1 μM of the reference antagonist.

Row | SMILES | inhibition at 10 µM [%]
1 | CC(Oc1ccc(Cl)cc1Cn1ccc2c(C(=O)O)cccc21)c1ccc(F)cc1F (stereo not drawn) [Example 23] | > 75
2 | O=C(O)c1cccc2c1ccn2Cc1cc(Cl)cc(Br)c1OCc1ccc(Br)cc1F [Example 28, 1-(3-bromo-2-((4-bromo-2-fluorobenzyl)oxy)-5-chlorobenzyl)-1H-indole-4-carboxylic acid] | 45 to 75
3 | O=C(O)c1cccc2c1ccn2Cc1cc(F)ccc1OCc1ccc(F)cc1 [Example 35, 1-(5-fluoro-2-((4-fluorobenzyl)oxy)benzyl)-1H-indole-4-carboxylic acid] | > 75
4 | O=C(O)c1cccc2c1ccn2Cc1cc(C(F)(F)F)ccc1OCc1c(F)cccc1F [Example 37, 1-(2-((2,6-difluorobenzyl)oxy)-5-(trifluoromethyl)benzyl)-1H-indole-4-carboxylic acid] | > 75
5 | O=C(O)c1cccc2c1ccn2Cc1cc(Cl)cc(Br)c1OCc1c(F)cccc1F [Example 40, 1-(3-bromo-5-chloro-2-((2,6-difluorobenzyl)oxy)benzyl)-1H-indole-4-carboxylic acid] | 45 to 75
6 | CC(c1cc(Cl)ccc1OCc1ccc(Cl)cc1F)n1ccc2c(C(=O)O)cccc21 (stereo not drawn) [Example 42, 1-(1-(5-chloro-2-((4-chloro-2-fluorobenzyl)oxy)phenyl)ethyl)-1H-indole-4-carboxylic acid] | > 75
7 | O=C(O)c1cccc2c1ccn2Cc1cc(C(F)(F)F)ccc1OCc1ccccc1F [Example 52, 1-(2-((2-fluorobenzyl)oxy)-5-(trifluoromethyl)benzyl)-1H-indole-4-carboxylic acid] | > 75
8 | O=C(O)c1cccc2c1ccn2Cc1cc(Cl)cc(Cl)c1OCc1ccc(Cl)cc1F [Example 59, 1-(3,5-dichloro-2-((4-chloro-2-fluorobenzyl)oxy)benzyl)-1H-indole-4-carboxylic acid] | 45 to 75
9 | O=C(O)c1cccc2c1ccn2Cc1ncccc1OCc1ccc(Cl)cc1F [Example 61, 1-((3-((4-chloro-2-fluorobenzyl)oxy)pyridin-2-yl)methyl)-1H-indole-4-carboxylic acid] | 45 to 75
10 | O=C(O)c1cccc2c1ccn2Cc1cc(Cl)ccc1CCc1ccc(Cl)cc1F [Example 63, 1-(5-chloro-2-(4-chloro-2-fluorophenethyl)benzyl)-1H-indole-4-carboxylic acid] | > 75
11 | O=C(O)c1ccc2c(ccn2Cc2cc(Cl)ccc2OCC2CC2)c1 [Example 64, 1-(5-chloro-2-(cyclopropylmethoxy)benzyl)-1H-indole-5-carboxylic acid] | > 75
12 | O=C(O)c1ccc2c(ccn2Cc2cc(F)ccc2OCc2cc(F)c(F)cc2F)c1 [Example 65] | > 75
13 | O=C(O)c1ccc2c(ccn2Cc2cc(F)ccc2OCc2ccc(F)cc2Cl)c1 [Example 66, 1-(2-((2-chloro-4-fluorobenzyl)oxy)-5-fluorobenzyl)-1H-indole-5-carboxylic acid] | > 75
14 | O=C(O)c1ccc2c(ccn2Cc2cc(Cl)ccc2OCc2ccc(F)cc2C(F)(F)F)c1 [Example 67] | 45 to 75
15 | O=C(O)c1ccc2c(ccn2Cc2cc(Br)ccc2OCc2ccc(F)cc2Cl)c1 [Example 70, 1-(5-bromo-2-((2-chloro-4-fluorobenzyl)oxy)benzyl)-1H-indole-5-carboxylic acid] | > 75
16 | O=C(O)c1ccc2c(ccn2Cc2cc(F)ccc2OCc2cc(F)c(F)c(F)c2)c1 [Example 71, 1-(5-fluoro-2-((3,4,5-trifluorobenzyl)oxy)benzyl)-1H-indole-5-carboxylic acid] | 45 to 75
17 | O=C(O)c1ccc2c(ccn2Cc2cc(F)ccc2OCc2cc(F)ccc2Cl)c1 [Example 73, 1-(2-((2-chloro-5-fluorobenzyl)oxy)-5-fluorobenzyl)-1H-indole-5-carboxylic acid] | 45 to 75
18 | O=C(O)c1ccc2c(ccn2Cc2cc(Br)ccc2OCc2ccc(F)cc2F)c1 [Example 74, 1-(5-bromo-2-((2,4-difluorobenzyl)oxy)benzyl)-1H-indole-5-carboxylic acid] | 45 to 75
19 | O=C(O)c1ccc2c(ccn2Cc2cc(Cl)ccc2OCc2ccc(Cl)cc2F)c1 [Example 76, 1-(5-chloro-2-((4-chloro-2-fluorobenzyl)oxy)benzyl)-1H-indole-5-carboxylic acid] | 45 to 75
20 | O=C(O)c1ccc2c(ccn2Cc2cc(Cl)ccc2OCc2ccc(F)cc2F)c1 [Example 78] | > 75
21 | O=C(O)/C=C/c1cccc2c1ccn2Cc1cc(C(F)(F)F)ccc1OCc1ccccc1 [Example 79, (E)-3-(1-(2-(benzyloxy)-5-(trifluoromethyl)benzyl)-1H-indol-4-yl)acrylic acid] | > 75
22 | O=C(O)/C=C/c1cccc2c1ccn2Cc1cc(Br)ccc1OCC1CC1 [Example 80, (E)-3-(1-(5-bromo-2-(cyclopropylmethoxy)benzyl)-1H-indol-4-yl)acrylic acid] | > 75
23 | O=C(O)/C=C/c1cccc2c1ccn2Cc1cc(Cl)ccc1OCC1CC1 [Example 81, (E)-3-(1-(5-chloro-2-(cyclopropylmethoxy)benzyl)-1H-indol-4-yl)acrylic acid] | > 75
24 | O=C(O)/C=C/c1cccc2c1ccn2Cc1cc(Cl)ccc1OCc1ccc(F)cc1F [Example 82, (E)-3-(1-(5-chloro-2-((2,4-difluorobenzyl)oxy)benzyl)-1H-indol-4-yl)acrylic acid] | > 75

Results, then the compound that gave them:

Row | inhibition at 10 µM [%] | SMILES
25 | > 75 | O=C(O)c1cccc2c1ccn2Cc1cc(F)ccc1OCc1ccc(F)cc1C(F)(F)F [Example 18, 1-(5-fluoro-2-((4-fluoro-2-(trifluoromethyl)benzyl)oxy)benzyl)-1H-indole-4-carboxylic acid]
26 | 45 to 75 | O=C(O)c1cccc2c1ccn2Cc1cc(F)ccc1OCc1cc(F)c(F)cc1Cl [Example 36, 1-(2-((2-chloro-4,5-difluorobenzyl)oxy)-5-fluorobenzyl)-1H-indole-4-carboxylic acid]
27 | > 75 | O=C(O)c1cccc2c1ccn2Cc1cc(F)ccc1OCc1cc(F)ccc1Cl [Example 38, 1-(2-((2-chloro-5-fluorobenzyl)oxy)-5-fluorobenzyl)-1H-indole-4-carboxylic acid]
28 | > 75 | O=C(O)c1cccc2c1ccn2Cc1cc(C(F)(F)F)ccc1OCc1cc(F)ccc1F [Example 39, 1-(2-((2,5-difluorobenzyl)oxy)-5-(trifluoromethyl)benzyl)-1H-indole-4-carboxylic acid]
29 | > 75 | O=C(O)c1cccc2c1ccn2Cc1cc(Cl)ccc1OCc1cc(F)cc(F)c1 [Example 41, 1-(5-chloro-2-((3,5-difluorobenzyl)oxy)benzyl)-1H-indole-4-carboxylic acid]
30 | > 75 | O=C(O)c1cccc2c1ccn2Cc1cc(Cl)ccc1OCc1ccc(F)cc1F [Example 43, 1-(5-chloro-2-((2,4-difluorobenzyl)oxy)benzyl)-1H-indole-4-carboxylic acid]
31 | > 75 | O=C(O)c1cccc2c1ccn2Cc1cc(Cl)ccc1OCc1ccc(Br)cc1F [Example 46, 1-(2-((4-bromo-2-fluorobenzyl)oxy)-5-chlorobenzyl)-1H-indole-4-carboxylic acid]
32 | > 75 | O=C(O)c1cccc2c1ccn2Cc1cc(F)ccc1OCc1ccc(F)cc1F [Example 53, 1-(2-((2,4-difluorobenzyl)oxy)-5-fluorobenzyl)-1H-indole-4-carboxylic acid]
33 | > 75 | O=C(O)c1cccc2c1ccn2Cc1cc(Cl)ccc1OCc1c(F)cc(Br)cc1F [Example 58, 1-(2-((4-bromo-2,6-difluorobenzyl)oxy)-5-chlorobenzyl)-1H-indole-4-carboxylic acid]
34 | > 75 | O=C(O)c1cccc2c1ccn2Cc1cc(Br)ccc1OCc1c(F)cc(Cl)cc1F [Example 60, 1-(5-bromo-2-((4-chloro-2,6-difluorobenzyl)oxy)benzyl)-1H-indole-4-carboxylic acid]
35 | > 75 | O=C(O)c1ccc2c(ccn2Cc2cc(F)ccc2OCc2cc(F)c(F)cc2Cl)c1 [Example 72, 1-(2-((2-chloro-4,5-difluorobenzyl)oxy)-5-fluorobenzyl)-1H-indole-5-carboxylic acid]

Same assay, conditions: at 10 μM

Row | Results of Test 2 (Functional assay), % inh | SMILES
36 | $ (% inh > 75) | O=C(O)CCc1cccc2c1ccn2Cc1cc(Cl)ccc1OCc1ccc(Cl)cc1F [Example 62, 3-(1-(5-chloro-2-((4-chloro-2-fluorobenzyl)oxy)benzyl)-1H-indol-4-yl)propanoic acid]
